Test results: US11464854B2, “Methods and compositions relating to adjuvants” (Children's Medical Center Corporation, priority 2017, dated 2022)

Key:
human TLR7 = molecular target: T1, human TLR7 (Homo sapiens, UniProt Q9NYK1); details: HEK293 cells stably expressing human TLR7 (ref. 24); cited from earlier work
T1 construct: host or cells: HEK293 with NF-kB-responsive SEAP reporter
T1 sequence (Q9NYK1 27-1049): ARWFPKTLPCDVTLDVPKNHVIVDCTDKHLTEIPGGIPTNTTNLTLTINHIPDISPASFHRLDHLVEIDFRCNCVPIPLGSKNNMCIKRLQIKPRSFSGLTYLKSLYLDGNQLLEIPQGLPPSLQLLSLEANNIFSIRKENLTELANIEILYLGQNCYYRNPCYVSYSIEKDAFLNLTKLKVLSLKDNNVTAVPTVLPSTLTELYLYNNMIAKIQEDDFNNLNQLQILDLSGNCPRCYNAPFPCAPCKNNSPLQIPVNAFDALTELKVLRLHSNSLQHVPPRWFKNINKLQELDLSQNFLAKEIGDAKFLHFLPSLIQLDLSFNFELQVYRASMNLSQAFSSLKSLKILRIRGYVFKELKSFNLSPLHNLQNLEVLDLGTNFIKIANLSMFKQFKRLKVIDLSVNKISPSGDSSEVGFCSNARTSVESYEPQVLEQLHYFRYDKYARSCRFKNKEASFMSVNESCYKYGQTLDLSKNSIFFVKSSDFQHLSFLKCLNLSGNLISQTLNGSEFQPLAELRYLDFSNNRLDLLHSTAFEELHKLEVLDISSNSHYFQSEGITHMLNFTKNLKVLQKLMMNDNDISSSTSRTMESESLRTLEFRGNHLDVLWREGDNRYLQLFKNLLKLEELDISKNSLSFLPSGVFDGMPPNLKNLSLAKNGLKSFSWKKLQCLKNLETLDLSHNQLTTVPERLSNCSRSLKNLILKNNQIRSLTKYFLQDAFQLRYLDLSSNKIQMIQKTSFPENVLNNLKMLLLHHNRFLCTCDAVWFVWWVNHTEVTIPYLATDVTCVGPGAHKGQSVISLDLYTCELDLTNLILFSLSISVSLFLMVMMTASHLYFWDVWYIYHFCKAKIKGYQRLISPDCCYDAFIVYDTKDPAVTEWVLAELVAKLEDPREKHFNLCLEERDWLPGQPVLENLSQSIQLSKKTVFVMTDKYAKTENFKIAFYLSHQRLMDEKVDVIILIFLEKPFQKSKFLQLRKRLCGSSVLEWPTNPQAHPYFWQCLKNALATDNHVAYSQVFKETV

[1] = Adsorption onto alum derived from DTaP vaccine (RP-HPLC); assay type: physicochemical; details: within 1-2 hr, all circumstances tested
adult human PBMCs = assay: Adult human PBMC stimulation
[2] = system: human neonatal and adult blood; assay: Human whole blood assay, cytokine induction (CRX adjuvants); assay type: cell-based
Description: Human blood was anti-coagulated with 20 units/ml pyrogen-free sodium heparin (American Pharmaceutical Partners, Inc.; Schaumberg, Ill.). All blood products were kept at room temperature and processed within 4 hours from collection. Human whole blood assays were completed as previously described. Briefly, neonatal cord blood or adult whole blood (WB) was mixed 1:1 with sterile pre-warmed (37° C.) RPMI 1640 medium (Invitrogen; Carlsbad, Calif.) and 180-225 μl of the 1:1 suspension was added to each well of a 96 well U-bottom plate (Becton Dickinson; Franklin Lakes, N.J., USA) containing 20-25 μl freshly prepared specific TLRAs at 10× the final concentration. Suspensions containing 200-250 μl/well were gently mixed by pipetting and incubated for 6 hours at 37° C. in a humidified incubator at 5%, CO2. After culture, plates were centrifuged at 500×g and ˜100-150 μl of supernatant was carefully removed by pipetting without disturbing the cell pellet. Supernatants derived from human leukocyte stimulations were assayed by ELISA for TNF and IFNγ (BD Biosciences; San Jose, Calif., USA).
Additionally, for both newborn and adult readouts, cytokine and chemokine expression profiles in cell culture supernatants and peripheral blood plasma were measured using customized Milliplex™ human cytokine/chemokine magnetic bead panels (Millipore; Billerica, Mass., USA). Assays were analyzed on the Luminex® 100/200™ System employing xPOTENT® software (Luminex; Austin, Tex.) and Millipore Milliplex Analyst™ (version 3.5.5.0). The minimum threshold for each analyte was set at the minimum detectable concentration for a given assay, defined as three standard deviations above the mean background. CL075 (TLR8/7) was purchased from InvivoGen (San Diego, Calif.) and used at the concentrations noted in the figure legends.

[3] = 1 μM and 10 μM, newborn over adult whole blood

Row | Compound | agonist activity, human TLR7 (human TLR7) | adsorption to the alum/antigen [1] | expression of CD123, HLA-D, CD80 and CD86 (adult human PBMCs; 24 h, compared to unstimulated cells, flow cytometry) | cytokine skewing (adult human PBMCs; adult PBMCs) | CXCL8, CXCL10, CCL2 and GM-CSF production (multiplex) [2, 3] | production of IL-1β, L-6, IL-10, and IL-12p40 (multiplex) [2, 3] | IFNγ production in newborn blood relative to similarly treated adult blood ([2]; 10 μM) | TNF production in newborn cord blood versus adult ([2]; 6 hours) | IFNγ production ([2]; newborn blood, 10 μM, 6 hours) [pg/mL] | induction of IFNγ ([2]; newborn cord blood, 6 hours)
1 | CCCCCCCCCCCCCCCCCC(=O)NCCCCOn1c(CCCC)nc2c(N)nc3ccccc3c21 [3M-052, N-[4-[(4-amino-2-butyl-1H-imidazo[4,5-c]quinolin-1-yl)oxy]butyl]octadecanamide] | Dual agonist activity | – | – | – | – | – | – | – | – | –
2 | CCCCc1nc2c(N)nc3ccccc3c2n1CCO [CRX-649] | – | 4-7% | increased expression | pro-inflammatory biased | greater CRX-649 induced production in newborn blood | concentration-dependent production | twice | more than adult-like age-specific potency and effectiveness | ~1200 | greatest potency, effectiveness and IFNγ polarization
